Data reported in the supplement of paper PMC10307832.

How the values were obtained:
Experiment in all cases: relative viability (nuclei count vs DMSO), 5 days (fraction); higher = more cells survive
[1] = compound: CCc1c2c(nc3ccc(OC(=O)N4CCC(N5CCCCC5)CC4)cc13)-c1cc3c(c(=O)n1C2)COC(=O)[C@]3(O)CC [Irinotecan] + COc1cc2c(Oc3ccc(NC(=O)C4(C(=O)Nc5ccc(F)cc5)CC4)cc3F)ccnc2cc1OCCCN1CCOCC1 [Foretinib] (partner 0.25 µM)
Summary of the method: (§1)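 Relative viability was taken as the ratio of nuclei in treated wells to nuclei in vehicle wells. Lung cancer cell lines in 1536-well plates received compounds by pin tool one day after seeding, either one drug alone or a fixed anchor-drug dose plus five library-drug doses (not always all listed) in √10 steps. Nuclei were counted on 4× images after 5 days of treatment, and values are medians of duplicate plates.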

[2] = compound: CCc1c2c(nc3ccc(OC(=O)N4CCC(N5CCCCC5)CC4)cc13)-c1cc3c(c(=O)n1C2)COC(=O)[C@]3(O)CC [Irinotecan] + Nc1nc2[nH]cc(CCc3ccc(C(=O)N[C@@H](CCC(=O)O)C(=O)O)cc3)c2c(=O)[nH]1 [Pemetrexed] (partner 0.2 µM)
Summary of the method: as §1

[3] = compound: Cn1cc(-c2cnc3ccc4ccc(CS(=O)(=O)NCc5ccccn5)cc4c(=O)c3c2)cn1 [MK-8033] + Cc1nc(Nc2ncc(C(=O)Nc3c(C)cccc3Cl)s2)cc(N2CCN(CCO)CC2)n1 [Dasatinib] (partner 0.075 µM)
Summary of the method: as §1

[4] = compound: Cn1cc(-c2cnc3ccc4ccc(CS(=O)(=O)NCc5ccccn5)cc4c(=O)c3c2)cn1 [MK-8033] + Nc1nc2[nH]cc(CCc3ccc(C(=O)N[C@@H](CCC(=O)O)C(=O)O)cc3)c2c(=O)[nH]1 [Pemetrexed] (partner 0.2 µM)
Summary of the method: as §1

Cell Line	relative viability ([1]; first compound 0.6325 µM)	relative viability ([1]; first compound 2 µM)	relative viability ([1]; first compound 6.325 µM)	relative viability ([1]; first compound 20 µM)	relative viability ([2]; first compound 0.6325 µM)	relative viability ([2]; first compound 2 µM)	relative viability ([2]; first compound 6.325 µM)	relative viability ([2]; first compound 20 µM)	relative viability ([3]; first compound 0.02 µM)	relative viability ([3]; first compound 0.06325 µM)	relative viability ([3]; first compound 0.2 µM)	relative viability ([3]; first compound 0.6325 µM)	relative viability ([3]; first compound 2 µM)	relative viability ([4]; first compound 0.02 µM)	relative viability ([4]; first compound 0.06325 µM)	relative viability ([4]; first compound 0.2 µM)	relative viability ([4]; first compound 0.6325 µM)	relative viability ([4]; first compound 2 µM)
ChaGo-K-1	0.65	0.367	0.255	0.248	0.238	0.232	0.236	0.239	0.603	0.588	0.527	0.66	0.641	0.251	0.223	0.253	0.267	0.262
EBC-1	0.0988	0.1	0.115	0.112														
EKVX	0.199	0.726	0.529	0.164		0.339	0.246	0.205	0.519	0.499	0.569	0.434	0.551	0.373	0.344	0.337	0.34	0.424
EMC-BAC-2	0.691	0.379	0.274	0.44	0.389	0.393	0.312	0.244	0.324	0.325	0.327	0.33	0.339	0.453	0.406	0.46	0.419	0.439
EPLC-272H	0.283	0.235	0.168	0.297	0.351	0.321	0.292	0.268	0.375	0.273	0.297	0.319	0.336	0.359	0.357	0.345	0.376	0.313
